Like-named read-outs stand apart in the source and are kept apart here.
What was measured:
HepG2 (human, liver) = assay: MTT cytotoxicity HepG2; assay type: cell-based; details: 72 h, n = 3
Description: (§1) All cell types were cultivated at 37 °C with 5% CO2. HepG2, HEK293, HCT116, CHO-K1, HeLa-CCL-2 and Huh-7.5 were purchased from ATCC. The respective cell media (Gibco) were supplemented with 10% FBS (Gibco) before usage. Cells were used between passages #5 and #30. To obtain biological repeats, cells were split separately for at least two passages.
(§2) Cells were washed with PBS and 0.5 mL trypsin was added. Afterwards, cells were incubated for 5 min before adding 10 mL medium containing 10% FBS. Per well, 120 µL cell suspension (5 × 10^4 cells/mL) was seeded in transparent 96-well cell bind plates and incubated for 2 h (37 °C, 5% CO2). A dilution series (1:3) of test compounds was prepared in respective media containing 10% FBS and added (60 µL) to the prepared cell plate. Cells were incubated for a further 72 h (37 °C, 5% CO2). Next, 20 µL MTT (5 mg/mL in PBS) was added to each well and incubated for 2 h (37 °C, 5% CO2). The wells were emptied and 100 µL isopropanol/10 N HCl (1000:4) per well was added.
(§3) The plates were analyzed by measuring the absorbance at 570 nm (plate reader Infinite® 200 Pro, Tecan). After normalization of data to the respective solvent controls, the calculated percentage of growth inhibition was plotted using GraphPad Prism software (version 10.0.2).

HEK293 (human, kidney) = assay: MTT cytotoxicity HEK293; assay type: cell-based
Description: as §1, §2, §3

HCT116 (human, colon) = assay: MTT cytotoxicity HCT116; assay type: cell-based; details: HCT-116, 72 h, n = 3
Description: as §1, §2, §3

CHO-K1 (hamster, ovary) = assay: MTT cytotoxicity CHO-K1; assay type: cell-based; details: CHO-K1, 72 h, n = 3
Description: as §1, §2, §3

HeLa (human, cervix) = assay: MTT cytotoxicity HeLa; assay type: cell-based; details: 72 h, n = 3
Description: as §1, §2, §3

[1] = test system: U2OS (human, osteosarcoma); assay: MTT cytotoxicity U2OS; assay type: cell-based; details: 72 h, n = 3
Description: as §2, §3

Huh-7.5 (human, liver) = assay: MTT cytotoxicity Huh-7.5; assay type: cell-based; details: Huh7.5, 72 h, n = 3
Description: as §1, §2, §3

U-2 OS cells = assay: Mitochondrial superoxide formation (MitoSOX Red); assay type: cell-based, human; details: n = 6
Description: CYS was tested for its potential to induce oxidative stress in U-2 OS cells. Therefore, 120 µL of a cell suspension in McCoy’s (+10% FBS) containing 5 × 10^4 cells/mL were seeded into black 96-well imaging plate (BD Falcon). The plates were incubated for two days (37 °C, 5% CO2) until the cells reached approximately 70% confluence. Subsequently, the cells were washed with HBSS buffer, prior to adding CYS (20 µM) and the ROS inducer menadione (50 µM) as positive control, along with the staining solution (HBSS, calcium, magnesium, 5 µM MitoSOX red and 10 µg/mL Hoechst (Thermo)). To check for ROS protective properties, menadione (50 µM) was added directly to the staining solution. […] Afterwards, the cells were washed twice with HBSS. The cells were imaged using an automated fluorescence microscope (Celldiscoverer 7, Zeiss) (excitation: […]) to analyze the fluorescence intensity of the superoxide tracker MitoSOX red. The experiment was carried out with six replicates per condition. Quantification was done by high-content image analysis using the ZEN software (version 3.4, blue edition, Zeiss). Data presentation was done using GraphPad Prism (version 10.0.3) with ordinary one-way ANOVA including multiple comparisons to the control group for statistical analysis of the sample without ROS induction via menadione in the staining solution. Multiple unpaired t test was used to compare samples for ROS protective properties, which were incubated with menadione in the staining solution.

[2] = Metabolic stability in mouse hepatocytes; assay type: in vitro ADME; details: mouse, pooled mouse hepatocytes; 1 μM, 0.25 × 10^6 cells/mL; read-out: Mouse Hepatocytes t1/2
Description: For the evaluation of combined phase I and phase II metabolic stability, the compound (1 μM) was incubated with 0.25 × 10^6 cells/mL of pooled mouse hepatocytes (Xenotech, Kansas City, USA). Cells were thawed in Leibovitz’s L-15 medium without phenol red (ThermoFisher Scientific, Waltham, USA). Briefly, cells were transferred into 50 mL of medium, followed by centrifugation at 55 g for 6 min. Supernatant was discarded, and the cell count was determined after gently resuspending the cell pellet in 1mL of medium. Hepatocytes were diluted to 0.5 × 10^6 cells/mL and incubated at 37 °C, 700 rpm for 10 min, to achieve the desired final cell count after addition of an equal volume of test compounds in medium, leading to a final test concentration of 1 µM at 1% DMSO. […] For the determination of metabolism in the presence of cobicistat, this drug was added together with test compounds in the desired concentration range. The metabolic stability of testosterone, verapamil, ketoconazole and 7-hydroxycoumarine were determined in parallel to confirm the enzymatic activity of mouse hepatocytes. […] Concentration of the remaining test compound at the different time points was analyzed by HPLC-MS/MS (Vanquish Flex coupled to a TSQ Altis Plus, Thermo Fisher, Dreieich, Germany) and used to determine half-life (t1/2). Intrinsic clearance was calculated as follows:2 CLintµL/min×10^6cells=Incubation volumeµL×ln(2)/Cells in incubation mixture[10^6]×t1/2
For metabolite identification studies, test compounds were incubated at 10 µM final concentration and samples were analyzed using HPLC-HRMS (Ultimate 3000 coupled to a Q Exactive Focus, Thermo Fisher, Dreieich, Germany). […] Blank samples using DMSO were run in parallel for background subtraction. Sample processing for metabolite identification was performed using Compound Discoverer 3.2 (Thermo Fisher, Dreieich, Germany). Metabolites were identified based on mass shifts and feasibility of the metabolic reaction, also in view of MS peak intensities over time.

E. coli gyrase = details: cited from earlier work
CHO-K1 cells [3] = assay: Micronucleus test; details: 24 h; mitomycin C 0.05 µM, doxorubicin 0.05 µM, etoposide 0.25 µM; CYS 20 µM, 100 µM for Cysto-180
[4] = test system: zebrafish embryos [Tg(fabp10a:DsRed; elaA:EGFP)]; assay: In vivo hepatotoxicity in zebrafish embryos; details: soaking 3 to 5 dpf; valproic acid 20, 40 µg/mL
Description: (§4) Handling of adult zebrafish and experiments with zebrafish embryos were performed in accordance with the EU directive 2010/63/EU and the German Animal Welfare Act (§11 Abs. 1 TierSchG). An automatic aquatic eco-system (PENTAIR, Apoka, UK) was used for zebrafish housing. Adult zebrafish were mated pairwise in our zebrafish facility after one night in the mating cages (light/dark cycle: 14 h/10 h). The eggs were collected after 2 h of mating and placed in a petri dish with fish water (pH 7.36 ± 0.08, conductivity: 800 ± 50 µs). The eggs were washed with 0.3x Danieau´s medium (17 mM NaCl, 0.2 mM KCl, 0.12 mM MgSO4, 0.18 mM Ca(NO3)2, 1.5 mM HEPES, pH 7.1–7.3, and 1.2 µM methylene blue). 300 eggs were placed per Petri dish and stored in the incubator at 28 °C overnight. […]
Zebrafish embryos [Tg(fabp10a:DsRed; elaA:EGFP)] were prepared as described above. […] After 48 h treatment, the embryos were checked via a fluorescence stereomicroscope (M205 FA, Leica) with attention to liver degeneration. Fluorescence images were taken after anesthetizing the embryos with tricaine (40 µg/mL) and placing them laterally (excitation: 558 nm, emission 583 nm, 35× magnification). […] The liver size was calculated using ImageJ software (format: 8 bit, threshold: 40–255, binary, particle size: 10.0-infinite). […] The relative liver sizes of treated embryos were calculated accordingly and normalized to the control group. […]

zebrafish embryos = assay: In vivo cardiotoxicity in zebrafish embryos; details: treated 2 to 3 dpf; CYS 20 µM; terfenadine 10, 20 µM
Description: as §4, with “overnight. 24 h post-mating, the unfertilized eggs were discarded. The 0.3x Danieau´s media in the petri dishes was replaced every 24 h and embryos with developmental issues were euthanized using ice water.” for “overnight.”
Embryos were prepared as described above. […] Afterwards, embryos were anesthetized with tricaine added to the media (40 µg/mL, 0.004% (w/v)) and videos were recorded using a stereomicroscope (1.25 × magnification) (Stemi 508, Zeiss) with Media Recorder (version 4.0) and analyzed via DanioScope software (version 1.2.208, Noldus). […]

CHO-K1 cells [5] = test system: CHO-K1 cells

## CC(C)Oc1c(NC(=O)c2ccc(NC(=O)[C@H](CC(N)=O)NC(=O)c3ccc(NC(=O)c4ccc(C#N)cc4)cc3)cc2)ccc(C(=O)Nc2ccc(C(=O)O)cc2)c1O [CN-DM-861]
HepG2 (human, liver)
  IC50: > 20000 nM
HEK293 (human, kidney); HEK293, 72 h, read-out: IC50 HEK293 (human, kidney)
  IC50: > 20000 nM
HCT116 (human, colon)
  IC50: > 20000 nM
CHO-K1 (hamster, ovary)
  IC50: > 20000 nM
HeLa (human, cervix)
  IC50: > 37000 nM
[1]
  IC50: > 20000 nM
Huh-7.5 (human, liver)
  IC50: > 20000 nM
U-2 OS cells; 20 µM, MitoSOX Red, no menadione
  basal superoxide radical levels vs DMSO control: no ROS induction at the maximum soluble concentration
U-2 OS cells; CYS 20 µM + menadione 50 µM
  menadione-induced superoxide formation on co-treatment: no significant increase of superoxide
[2]
  half-life at 1 µM: 1.57 ± 0.25 h
E. coli gyrase
  IC50: […]

## CO[C@@]12[C@H](COC(N)=O)C3=C(C(=O)C(C)=C(N)C3=O)N1C[C@@H]1N[C@@H]12 [mitomycin C]
CHO-K1 cells [3]
  micronuclei/nuclear bud formation: high amount of nuclear bud/micronuclei formation

## CCCC(CCC)C(=O)O [Valproic acid, valproic acid]
[4]
  liver size: significant liver size reduction

## CC(C)(C)c1ccc(C(O)CCCN2CCC(C(O)(c3ccccc3)c3ccccc3)CC2)cc1 (centres unmarked) [terfenadine]
Zebrafish embryos
  heartbeat rate: significant and concentration-dependent decrease of beats per minute
  pericardial area: significant, concentration-dependent increase in pericardial area

## COc1cccc2c1C(=O)c1c(O)c3c(c(O)c1C2=O)C[C@@](O)(C(=O)CO)C[C@@H]3O[C@H]1C[C@H](N)[C@H](O)[C@H](C)O1 [Doxorubicin, doxorubicin, reference compound]
HepG2 (human, liver)
  IC50: 480 ± 130 nM
HEK293 (human, kidney); HEK293, MTT, 72 h, n = 3, read-out: IC50 HEK293 (human, kidney)
  IC50: 160 ± 40 nM
HCT116 (human, colon)
  IC50: 240 ± 20 nM
CHO-K1 (hamster, ovary)
  IC50: 100 ± 10 nM
CHO-K1 cells [5]
  micronuclei/nuclear bud formation: high amount of nuclear bud/micronuclei formation

Source: publication PMC13267113 (npj Drug Discovery, 2025)
